Test results from patent US20250230193A1, “CYCLIC COMPOUND HAVING SELECTIVE KRAS INHIBITORY EFFECT ON HRAS AND NRAS” (CHUGAI SEIYAKU KABUSHIKI KAISHA, priority 2022, published 2025).
Where a SMILES comes first, the peptide text is derived from it. Bridges are numbered along the chain shown (N, C = ends). [ ]: non-standard residue; d: D form. hPhe(3-Cl-4-CF3) = N[C@@H](CCc1ccc(C(F)(F)F)c(Cl)c1)C(=O)O; NPrPhe(4-CF3) = CCCN[C@@H](Cc1ccc(C(F)(F)F)cc1)C(=O)O; NMeGly(cPent) = CN[C@H](C(=O)O)C1CCCC1; Pro(4,4-F2) = O=C(O)[C@@H]1CC(F)(F)CN1; Hyp = O=C(O)[C@@H]1C[C@@H](O)CN1; NMeD = CN[C@@H](CC(=O)O)C(=O)O; NMeL = CN[C@@H](CC(C)C)C(=O)O; Ac5c = NC1(C(=O)O)CCCC1; Aze = O=C(O)[C@@H]1CCN1; Ac4c = NC1(C(=O)O)CCC1; NEtG = CCNCC(=O)O; Sar = CNCC(=O)O

Legend:
[1] = target: GDP-bound NRAS wild-type protein (Homo sapiens, UniProt P01111); assay: Binding to NRAS by surface plasmon resonance (SPR), Single Cycle Kinetics; conditions: KD ratio NRAS/KRAS, SPR
Chain of GDP-bound NRAS wild-type protein (P01111 whole entry): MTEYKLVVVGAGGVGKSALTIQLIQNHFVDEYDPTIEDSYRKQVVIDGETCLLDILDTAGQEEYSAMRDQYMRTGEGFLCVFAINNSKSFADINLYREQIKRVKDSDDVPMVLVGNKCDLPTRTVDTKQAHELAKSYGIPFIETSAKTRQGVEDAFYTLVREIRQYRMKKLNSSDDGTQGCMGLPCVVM

[2] = target: GDP-bound HRAS wild-type protein (Homo sapiens, UniProt P01112); assay: Binding to HRAS by surface plasmon resonance (SPR), Single Cycle Kinetics; conditions: KD ratio HRAS/KRAS, SPR
Chain of GDP-bound HRAS wild-type protein (P01112 whole entry): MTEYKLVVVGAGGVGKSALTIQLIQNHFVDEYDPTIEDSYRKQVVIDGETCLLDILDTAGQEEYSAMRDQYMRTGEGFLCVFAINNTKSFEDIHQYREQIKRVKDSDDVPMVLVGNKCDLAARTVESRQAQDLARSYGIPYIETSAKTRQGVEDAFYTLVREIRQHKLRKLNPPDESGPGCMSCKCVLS

SMILES | NRAS/KRAS (ratio of KD value with respect to GDP-bound NRAS wild-type protein to KD value with respect to KRAS) [1] | HRAS/KRAS (ratio of KD value with respect to GDP-bound HRAS wild-type protein to KD value with respect to KRAS) [2]
CCCN1C(=O)CN(C)C(=O)CNC(=O)[C@H]([C@@H](C)CC)NC(=O)[C@H](CC(C)C)N(C)C(=O)C[C@@H](C(=O)N(C)C)N(C)C(=O)[C@H](C2CCCC2)N(C)C(=O)C2(CCCC2)NC(=O)[C@@H]2C[C@@H](OCC)CN2C(=O)[C@H](CCc2ccc(C(F)(F)F)c(Cl)c2)NC(=O)CN(C)C(=O)[C@@H]1Cc1ccc(C(F)(F)F)cc1 [PP0421] ([NMeL]IG[Sar][NPrPhe(4-CF3)][Sar][hPhe(3-Cl-4-CF3)][Hyp](Et)[Ac5c][NMeGly(cPent)][NMeD]-NMe2; lactam N-11) | B (a compound having 3 or more and less than 10 is denoted as B) | C (A compound having a KD ratio of 0.1 or more and less than 3 is denoted as C)
CCCN1C(=O)CN(C)C(=O)CNC(=O)[C@H]([C@@H](C)CC)NC(=O)[C@H](CC(C)C)N(C)C(=O)C[C@@H](C(=O)N(C)C)N(C)C(=O)[C@H](C2CCCC2)N(C)C(=O)C2(CCC2)NC(=O)[C@@H]2C[C@@H](OCC)CN2C(=O)[C@H](CCc2ccc(C(F)(F)F)c(Cl)c2)NC(=O)CN(C)C(=O)[C@@H]1Cc1ccc(C(F)(F)F)cc1 [PP0422] ([NMeL]IG[Sar][NPrPhe(4-CF3)][Sar][hPhe(3-Cl-4-CF3)][Hyp](Et)[Ac4c][NMeGly(cPent)][NMeD]-NMe2; lactam N-11) | B (a compound having 3 or more and less than 10 is denoted as B) | B (a compound having 3 or more and less than 10 is denoted as B)
CCCN1C(=O)CN(C)C(=O)CN(CC)C(=O)[C@H]([C@@H](C)CC)NC(=O)[C@H](CC(C)C)N(C)C(=O)C[C@@H](C(=O)N(C)C)N(C)C(=O)[C@H](C2CCCC2)N(C)C(=O)C2(CCCC2)NC(=O)[C@@H]2CCCN2C(=O)[C@H](CCc2ccc(C(F)(F)F)c(Cl)c2)NC(=O)CN(C)C(=O)[C@@H]1Cc1ccc(C(F)(F)F)cc1 [PP0423] ([NMeL]I[NEtG][Sar][NPrPhe(4-CF3)][Sar][hPhe(3-Cl-4-CF3)]P[Ac5c][NMeGly(cPent)][NMeD]-NMe2; lactam N-11) | B (a compound having 3 or more and less than 10 is denoted as B) | C (A compound having a KD ratio of 0.1 or more and less than 3 is denoted as C)
CCCN1C(=O)CN(C)C(=O)CN(CC)C(=O)[C@H]([C@@H](C)CC)NC(=O)[C@H](CC(C)C)N(C)C(=O)C[C@@H](C(=O)N(C)C)N(C)C(=O)[C@H](C2CCCC2)N(C)C(=O)C2(CCC2)NC(=O)[C@@H]2CCCN2C(=O)[C@H](CCc2ccc(C(F)(F)F)c(Cl)c2)NC(=O)CN(C)C(=O)[C@@H]1Cc1ccc(C(F)(F)F)cc1 [PP0424] ([NMeL]I[NEtG][Sar][NPrPhe(4-CF3)][Sar][hPhe(3-Cl-4-CF3)]P[Ac4c][NMeGly(cPent)][NMeD]-NMe2; lactam N-11) | B (a compound having 3 or more and less than 10 is denoted as B) | C (A compound having a KD ratio of 0.1 or more and less than 3 is denoted as C)
CCCN1C(=O)CN(C)C(=O)CN(CC)C(=O)[C@H]([C@@H](C)CC)NC(=O)[C@H](CC(C)C)N(C)C(=O)C[C@@H](C(=O)N(C)C)N(C)C(=O)[C@H](C2CCCC2)N(C)C(=O)C2(CCCC2)NC(=O)[C@@H]2CC(F)(F)CN2C(=O)[C@H](CCc2ccc(C(F)(F)F)c(Cl)c2)NC(=O)CN(C)C(=O)[C@@H]1Cc1ccc(C(F)(F)F)cc1 [PP0425] ([NMeL]I[NEtG][Sar][NPrPhe(4-CF3)][Sar][hPhe(3-Cl-4-CF3)][Pro(4,4-F2)][Ac5c][NMeGly(cPent)][NMeD]-NMe2; lactam N-11) | B (a compound having 3 or more and less than 10 is denoted as B) | C (A compound having a KD ratio of 0.1 or more and less than 3 is denoted as C)
CCCN1C(=O)CN(C)C(=O)CN(CC)C(=O)[C@H]([C@@H](C)CC)NC(=O)[C@H](CC(C)C)N(C)C(=O)C[C@@H](C(=O)N(C)C)N(C)C(=O)[C@H](C2CCCC2)N(C)C(=O)C2(CCC2)NC(=O)[C@@H]2CC(F)(F)CN2C(=O)[C@H](CCc2ccc(C(F)(F)F)c(Cl)c2)NC(=O)CN(C)C(=O)[C@@H]1Cc1ccc(C(F)(F)F)cc1 [PP0426] ([NMeL]I[NEtG][Sar][NPrPhe(4-CF3)][Sar][hPhe(3-Cl-4-CF3)][Pro(4,4-F2)][Ac4c][NMeGly(cPent)][NMeD]-NMe2; lactam N-11) | C (A compound having a KD ratio of 0.1 or more and less than 3 is denoted as C) | C (A compound having a KD ratio of 0.1 or more and less than 3 is denoted as C)
CCCN1C(=O)CN(C)C(=O)CN(CC)C(=O)[C@H]([C@@H](C)CC)NC(=O)[C@H](CC(C)C)N(C)C(=O)C[C@@H](C(=O)N(C)C)N(C)C(=O)[C@H](C2CCCC2)N(C)C(=O)C2(CCCC2)NC(=O)[C@@H]2C[C@@H](OCC)CN2C(=O)[C@H](CCc2ccc(C(F)(F)F)c(Cl)c2)NC(=O)CN(C)C(=O)[C@@H]1Cc1ccc(C(F)(F)F)cc1 [PP0427] ([NMeL]I[NEtG][Sar][NPrPhe(4-CF3)][Sar][hPhe(3-Cl-4-CF3)][Hyp](Et)[Ac5c][NMeGly(cPent)][NMeD]-NMe2; lactam N-11) | B (a compound having 3 or more and less than 10 is denoted as B) | C (A compound having a KD ratio of 0.1 or more and less than 3 is denoted as C)
CCCN1C(=O)CN(C)C(=O)CN(CC)C(=O)[C@H]([C@@H](C)CC)NC(=O)[C@H](CC(C)C)N(C)C(=O)C[C@@H](C(=O)N(C)C)N(C)C(=O)[C@H](C2CCCC2)N(C)C(=O)C2(CCC2)NC(=O)[C@@H]2C[C@@H](OCC)CN2C(=O)[C@H](CCc2ccc(C(F)(F)F)c(Cl)c2)NC(=O)CN(C)C(=O)[C@@H]1Cc1ccc(C(F)(F)F)cc1 [PP0428] ([NMeL]I[NEtG][Sar][NPrPhe(4-CF3)][Sar][hPhe(3-Cl-4-CF3)][Hyp](Et)[Ac4c][NMeGly(cPent)][NMeD]-NMe2; lactam N-11) | B (a compound having 3 or more and less than 10 is denoted as B) | C (A compound having a KD ratio of 0.1 or more and less than 3 is denoted as C)
CCCN1C(=O)CN(C)C(=O)[C@@H]2CCN2C(=O)[C@H]([C@@H](C)CC)NC(=O)[C@H](CC(C)C)N(C)C(=O)C[C@@H](C(=O)N(C)C)N(C)C(=O)[C@H](C2CCCC2)N(C)C(=O)C2(CCCC2)NC(=O)[C@@H]2CCCN2C(=O)[C@H](CCc2ccc(C(F)(F)F)c(Cl)c2)NC(=O)CN(C)C(=O)[C@@H]1Cc1ccc(C(F)(F)F)cc1 [PP0429] ([NMeL]I[Aze][Sar][NPrPhe(4-CF3)][Sar][hPhe(3-Cl-4-CF3)]P[Ac5c][NMeGly(cPent)][NMeD]-NMe2; lactam N-11) | B (a compound having 3 or more and less than 10 is denoted as B) | C (A compound having a KD ratio of 0.1 or more and less than 3 is denoted as C)
